Experimental data reported in US4988677A, “Macrolide antibiotic and its use as a medicinal agent” (Hoechst Aktiengesellschaft, priority 1986, dated 1991).

Columns and labels:
S. aureus 209P = assay: MIC of swalpamycin, agar plate test; assay type: cell-based, Staphylococcus aureus
Excerpt: (§1) The minimum inhibitory concentration (MIC) of swalpamycin has been determined for various microorganisms.

S. aureus 20424 Mac^R = assay: MIC of swalpamycin, agar plate test; assay type: cell-based, Staphylococcus aureus; details: S. aureus 20424 Mac^R (Mac = macrolide)
Excerpt: (§2) The minimum inhibitory concentration (MIC) of swalpamycin has been determined for various microorganisms. The results are to be found in Table I which follows:
(§3) *Mac = macrolide, Em = erythromycin, Meth = methicillin

S. aureus 3066 Meth.^R = assay: MIC of swalpamycin, agar plate test; assay type: cell-based, Staphylococcus aureus; details: S. aureus 3066 Meth.^R (Meth = methicillin)
Excerpt: as §2, §3

S. aureus 712 Meth^R = assay: MIC of swalpamycin, agar plate test; assay type: cell-based, Staphylococcus aureus; details: S. aureus 712 Meth^R (Meth = methicillin)
Excerpt: as §2, §3

S. aureus 789 Meth.^R = assay: MIC of swalpamycin, agar plate test; assay type: cell-based, Staphylococcus aureus; details: S. aureus 789 Meth.^R (Meth = methicillin)
Excerpt: as §2, §3

S. aureus MLS 11,Em^R = assay: MIC of swalpamycin, agar plate test; assay type: cell-based, Staphylococcus aureus; details: S. aureus MLS 11,Em^R (Em = erythromycin)
Excerpt: as §2, §3

S. aureus MLS 14,Em^R = assay: MIC of swalpamycin, agar plate test; assay type: cell-based, Staphylococcus aureus; details: S. aureus MLS 14,Em^R (Em = erythromycin)
Excerpt: as §2, §3

S. aureus MLS 16,Em^R = assay: MIC of swalpamycin, agar plate test; assay type: cell-based, Staphylococcus aureus; details: S. aureus MLS 16,Em^R (Em = erythromycin)
Excerpt: as §2, §3

S. aureus R 85,Em^R = assay: MIC of swalpamycin, agar plate test; assay type: cell-based, Staphylococcus aureus; details: S. aureus R 85,Em^R (Em = erythromycin)
Excerpt: as §2, §3

S. aureus R85/M, Em^R = assay: MIC of swalpamycin, agar plate test; assay type: cell-based, Staphylococcus aureus; details: Em^R (Em = erythromycin)
Excerpt: as §2, §3

Strept. faecalis UD 86 = assay: MIC of swalpamycin, agar plate test; assay type: cell-based, Streptococcus faecalis
Excerpt: as §1

[1] = tested on: Strept. faecalis Eder:Mac^R; assay: MIC of swalpamycin, agar plate test; assay type: cell-based, Streptococcus faecalis; details: Strept. faecalis Eder:Mac^R (Mac = macrolide)
Excerpt: as §2, §3

Bacillus subtilis [2] = assay: MIC of swalpamycin, agar plate test; assay type: cell-based
Excerpt: as §1

Candida albicans = assay: MIC of swalpamycin, agar plate test; assay type: cell-based
Excerpt: as §1

Cit. freundii = assay: MIC of swalpamycin, agar plate test; assay type: cell-based
Excerpt: as §1

E. coli 9632 = assay: MIC of swalpamycin, agar plate test; assay type: cell-based
Excerpt: as §1

E. coli ESS 2231 = assay: MIC of swalpamycin, agar plate test; assay type: cell-based
Excerpt: as §1

Ent. cloacae = assay: MIC of swalpamycin, agar plate test; assay type: cell-based
Excerpt: as §1

Micrococcus luteus [3] = assay: MIC of swalpamycin, agar plate test; assay type: cell-based
Excerpt: as §1

Pr. vulgaris = assay: MIC of swalpamycin, agar plate test; assay type: cell-based
Excerpt: as §1

Prov. stuartii = assay: MIC of swalpamycin, agar plate test; assay type: cell-based
Excerpt: as §1

Ps. aeruginosa M 35 = assay: MIC of swalpamycin, agar plate test; assay type: cell-based
Excerpt: as §1

Sarcina lutea [4] = assay: MIC of swalpamycin, agar plate test; assay type: cell-based
Excerpt: as §1

Bacillus subtilis [5] = assay: laboratory agar plate tests, antimicrobial spectrum; assay type: cell-based; details: strains of Bacillus subtilis
Excerpt: as §1

Micrococcus luteus [6] = assay: as above; assay type: cell-based; details: strains of Micrococcus luteus
Excerpt: as §1

Mycoplasma gallinarum = assay: as above; assay type: cell-based; details: strains of Mycoplasma gallinarum
Excerpt: as §1

Mycoplasma pulmonis = assay: as above; assay type: cell-based; details: strains of Mycoplasma pulmonis
Excerpt: as §1

Sarcina lutea [7] = assay: as above; assay type: cell-based; details: strains of Sarcina lutea
Excerpt: as §1

Staphylococcus aureus = assay: as above; assay type: cell-based; details: sensitive and resistant strains of Staphylococcus aureus
Excerpt: as §1

Streptococcus faecalis = assay: as above; assay type: cell-based; details: sensitive and resistant strains of Streptococcus faecalis
Excerpt: as §1

Streptococcus pyogenes = assay: as above; assay type: cell-based; details: strains of Streptococcus pyogenes
Excerpt: as §1

[8] = tested on: Gram-positive bacteria, including erythromycin-resistant strains; assay: antibacterial activity; assay type: cell-based
Excerpt: as §1

mycoplasma = assay: antimycoplasma activity; assay type: cell-based
Excerpt: as §1

solubility = assay type: physicochemical
Excerpt: Swalpamycin is a colorless amorphous powder which is soluble in methanol, ethanol, n-propanol, isopropanol, n-butanol, ethyl acetate, n-butyl acetate, acetone, ethyl methyl ketone, methyl isobutyl ketone, methylene chloride, chloroform, dimethylformamide and dimethyl sulfoxide.

COC1C(OCC2/C=C/C=C/C(=O)C(C)CC(C)C(OC3OC(C)CC4(OC(=O)OC4C)C3O)C(C)/C=C/C(=O)OC2C)OC(C)C(O)C1OC (stereo not drawn) [Swalpamycin, swalpamycin]
minimum inhibitory concentration (MIC) (S. aureus 209P): 6.3 | minimum inhibitory concentration (MIC) (S. aureus 20424 Mac^R): 50 | minimum inhibitory concentration (MIC) (S. aureus 3066 Meth.^R): 3.2 | minimum inhibitory concentration (MIC) (S. aureus 712 Meth^R): 12.5 | minimum inhibitory concentration (MIC) (S. aureus 789 Meth.^R): > 50 | minimum inhibitory concentration (MIC) (S. aureus MLS 11,Em^R): 25 | minimum inhibitory concentration (MIC) (S. aureus MLS 14,Em^R): 25 | minimum inhibitory concentration (MIC) (S. aureus MLS 16,Em^R): 12.5 | minimum inhibitory concentration (MIC) (S. aureus R 85,Em^R): 12.5 | minimum inhibitory concentration (MIC) (S. aureus R85/M, Em^R): > 50 | minimum inhibitory concentration (MIC) (Strept. faecalis UD 86): > 50 | minimum inhibitory concentration (MIC) [1]: > 50 | minimum inhibitory concentration (MIC) (Bacillus subtilis [2]): 0.1 | minimum inhibitory concentration (MIC) (Candida albicans): > 50 | minimum inhibitory concentration (MIC) (Cit. freundii): > 50 | minimum inhibitory concentration (MIC) (E. coli 9632): > 50 | minimum inhibitory concentration (MIC) (E. coli ESS 2231): > 50 | minimum inhibitory concentration (MIC) (Ent. cloacae): > 50 | minimum inhibitory concentration (MIC) (Micrococcus luteus [3]): 1.6 | minimum inhibitory concentration (MIC) (Pr. vulgaris): > 50 | minimum inhibitory concentration (MIC) (Prov. stuartii): > 50 | minimum inhibitory concentration (MIC) (Ps. aeruginosa M 35): > 50 | minimum inhibitory concentration (MIC) (Sarcina lutea [4]): 0.2 | antimicrobial activity in vitro (Bacillus subtilis [5]): acts in vitro | antimicrobial activity in vitro (Micrococcus luteus [6]): acts in vitro | antimicrobial activity in vitro (Mycoplasma gallinarum): acts in vitro | antimicrobial activity in vitro (Mycoplasma pulmonis): acts in vitro | antimicrobial activity in vitro (Sarcina lutea [7]): acts in vitro | antimicrobial activity in vitro (Staphylococcus aureus): acts in vitro against sensitive and resistant strains | antimicrobial activity in vitro (Streptococcus faecalis): acts in vitro against sensitive and resistant strains | antimicrobial activity in vitro (Streptococcus pyogenes): acts in vitro | activity [8]: active | activity (mycoplasma): active | solubility in hexane and petroleum ether (solubility; hexane, petroleum ether (40°-60°)): sparingly soluble or insoluble | solubility in organic solvents (solubility; methanol, ethanol, n-propanol, isopropanol, n-butanol, ethyl acetate, n-butyl acetate, acetone, ethyl methyl ketone, methyl isobutyl ketone, methylene chloride, chloroform, dimethylformamide, dimethyl sulfoxide): soluble | solubility in water (solubility; water): sparingly soluble or insoluble
